# According to patent publication US20040028646A1, “Particle formation” (priority 2002, published 2004):
# Tested on: lysozyme
# Assay: Retention of original lysozyme activity after Nektar SCF processing
# Type: biochemical
# Settings: after Nektar SCF processing at 0° C., 100 bar
row,Substance,Retained original (pre-Nektar SCF) activity [%]
1,Experiment 8.2: conjugate of the protein lysozyme with linear mPEG of 5 kDaltons,108
2,Experiment 8.1: unconjugated lysozyme subjected to Nektar SCF processing from 20 mg/ml aqueous solution,105
